Laboratory results: US9487477B2, “Crystalline phase of (3S,3S′) 4,4′-disulfanediylbis(3-aminobutane 1-sulfonic acid) with L-lysine” (Quantum Genomics, priority 2012, dated 2016)

Tests used:
[1] = Hygroscopicity; format: physicochemical
[2] = Differential scanning calorimetry (thermal stability); format: physicochemical; settings: DSC from −20° C. up to 180° C., heating rate 5K/min
Experimental: FIG. 3: DSC pattern of ABSD.(L-lysine)2. Said experiment was performed from −20° C. up to 180° C., heating rate=5K/min.
The phase isolated, so called “ABSD L-lysinate”, was analyzed by DSC (FIG. 3). […] Said results further confirm that the crystalline form is anhydrous.

[3] = Karl Fischer titration (water content); format: physicochemical
Text: A Karl Fischer titration is a classical titration method to determine the trace amounts of water in a sample. A Karl Fischer titration has confirmed the DSC analysis, by determining a water content of 0.06% inside the sample (i.e. very small amount of adsorbed water).

[4] = Solubility in water and other solvents; format: physicochemical
[5] = cited from earlier work
[6] = TGA-DSC analysis coupled to mass spectrometry (thermal behavior, loss of water); format: physicochemical; settings: TGA-DSC from 30° C., heating rate 5K/Min
Experimental: A TGA-DSC analysis (coupled to mass spectrometry) was performed on this salt in order to observe its thermal behavior, and to determine its water content.
A TGA-DSC analysis (coupled to mass spectroscopy) was performed on this phase (FIG. 8).
A TGA-DSC analysis coupled to a Mass Spectroscopy (MS) was performed on this phase (FIG. 10).

Which hygroscopicity [1] does the source give for `NCCCCC(N)C(=O)O` (racemic) [DL-lysine, reference compound] here?
The hygroscopicity was “high hygroscopicity up to deliquescence”.

Which results are given for `NCCCC[C@H](N)C(=O)O.NCCCC[C@H](N)C(=O)O.N[C@@H](CCS(=O)(=O)O)CSSC[C@@H](N)CCS(=O)(=O)O` [ABSD L-lysinate]?
thermal stability: no thermal phenomenon up to [2]: up to 180 °C; water content [3]: 0.06%; hygroscopy compared to the ABSD zwitterionic form [1]: lower; aqueous solubility compared to the ABSD trihydrate [4]: higher; aqueous solubility compared to the ABSD zwitterionic form ([4]; room temperature): higher

For `N[C@H](CCS(=O)(=O)O)CSSC[C@H](N)CCS(=O)(=O)O` [ABSD zwitterion, (3S,3S′) 4,4′-disulfanediylbis(3-aminobutane 1-sulfonic acid)], which “time for the mixture of hydrated forms to evolve toward the trihydrate phase” value ([5]; stored at circa 20° C. and RH>50%, WO 2012/045849) is on record?
Its value is “less than two days”.

For `N[C@@H](CCS(=O)(=O)[O-])CSSC[C@@H](N)CCS(=O)(=O)O.[Na+]` [sodium hydrogen salt of ABSD], which “temperature of loss of water” value [6] is on record?
The value was “circa 35 °C”.

For `N[C@H](CCS(=O)(=O)O)CSSC[C@H](N)CCS(=O)(=O)O` [trihydrate phase], which “temperature at which dehydration toward the dihydrate form starts” value ([5]; as described in WO 2012/045849) is on record?
Its value is “below 30 °C”.
